“Also recorded” adds a separate entry of the source. Read-outs that look alike come from different tables or passages of the source.
Tests used:
NF-κB [1] = biological target: T1, NF-κB (Homo sapiens, UniProt P19838+Q04206); assay: EMSA of nuclear NF-κB-DNA binding in nuclear extracts of PMA-stimulated Jurkat leukemia T-cells; format: cell-based; set-up: endogenous in cells; host or cells: Jurkat leukemia T-cells, clone E6-1 (ATCC), PMA-stimulated; nuclear extract; conditions: compound 0.1 μM (100 nM)
T1 sequence (Q04206 whole entry): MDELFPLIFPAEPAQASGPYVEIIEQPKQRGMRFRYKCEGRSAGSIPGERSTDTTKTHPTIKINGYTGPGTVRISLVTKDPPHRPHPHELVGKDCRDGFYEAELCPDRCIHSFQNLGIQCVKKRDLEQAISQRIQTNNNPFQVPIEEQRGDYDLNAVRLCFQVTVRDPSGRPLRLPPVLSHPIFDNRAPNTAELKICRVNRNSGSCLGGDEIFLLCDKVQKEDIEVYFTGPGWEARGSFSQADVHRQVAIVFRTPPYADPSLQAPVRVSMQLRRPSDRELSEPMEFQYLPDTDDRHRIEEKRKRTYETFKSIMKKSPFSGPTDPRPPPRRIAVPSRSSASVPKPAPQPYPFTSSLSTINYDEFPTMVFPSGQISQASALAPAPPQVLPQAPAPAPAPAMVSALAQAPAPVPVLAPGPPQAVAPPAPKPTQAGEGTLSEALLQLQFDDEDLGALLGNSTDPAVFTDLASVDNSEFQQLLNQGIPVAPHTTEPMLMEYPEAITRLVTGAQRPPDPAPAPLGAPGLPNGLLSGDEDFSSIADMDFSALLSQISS
T1 sequence (P19838 1-433 limits assumed): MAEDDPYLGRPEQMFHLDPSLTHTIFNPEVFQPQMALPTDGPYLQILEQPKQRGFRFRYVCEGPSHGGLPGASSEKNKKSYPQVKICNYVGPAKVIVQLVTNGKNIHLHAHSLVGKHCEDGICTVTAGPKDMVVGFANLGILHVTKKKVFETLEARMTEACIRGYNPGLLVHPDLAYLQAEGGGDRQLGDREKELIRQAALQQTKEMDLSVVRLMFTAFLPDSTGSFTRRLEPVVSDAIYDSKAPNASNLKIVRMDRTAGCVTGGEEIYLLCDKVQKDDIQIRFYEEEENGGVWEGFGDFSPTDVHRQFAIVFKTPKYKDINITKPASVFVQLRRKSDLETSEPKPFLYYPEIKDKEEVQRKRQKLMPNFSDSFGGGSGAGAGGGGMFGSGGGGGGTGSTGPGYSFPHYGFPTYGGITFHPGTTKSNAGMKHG
Method: (§1) All compounds were evaluated for their potential anti-inflammatory activity by examining the activity of NF-κB in vitro in nuclear extracts using the procedure from Breton and Charbot-Fletcher (Breton et al., J. Pharmacol. Exp. Ther. 282 459-466 (1997)). […] The Jurkat cells (1×10^7 cells/mL) are subsequently treated with various concentrations of imidazoline for 30 minutes at 37° C. followed by PMA stimulation (5.0 ng/mL) for an additional 5 hours. Nuclear extracts are incubated for 20 minutes with a double stranded Cy3 labeled NF-κB consensus oligonucleotide, 5′-[…]-3′ (SEQ ID NO:1) at room temperature. The crude mixture is loaded on a 5% non-denaturing polyacrylamide gel prepared in 1×Tris borate/EDTA buffer and electrophoresed at 200V for 2 hours. After electrophoresis the gel is analyzed using a phosphorimager (Biorad FX PLUS) for detection of the NF-κB-DNA binding.
EMSA assay for NF-κB-DNA binding was as follows. […] The Jurkat cells (1×10^6 cells/mL) were subsequently treated with various concentrations of the compounds for 30 minutes at 37° C. and 5% CO2 followed by PMA (50 ng/mL) and PHA ([…]) stimulation for an additional 30 minutes. The cells were harvested by centrifugation, washed in ice cold PBS and the nuclear extracts were prepared as previously described (Dignam, et al., Nucl. Acids Res 11: 1475-1489 (1983)). The protein concentration of the extracts was determined according to the Method of Bradford (1976) with BioRad reagents. Nuclear extracts are incubated for 20 minutes at room temperature with a double stranded Cy3 labeled NF-kB consensus oligonucleotide, 5′-[…] CCAGGC-3′ (SEQ ID NO:1). The binding mixture ([…]) contained 10 mM HEPES-NaOH pH 7.9, 4 mM tris-HCl, pH 7.9, 6.0 mM KCl, 1 mM EDTA, 1 mM DTT, 10% glycerol, 0.3 mg/mL bovide serum albumin and […] of poly (dI.dC). The binding mixtures ([…] of nuclear extract protein) were incubated for 20 minutes at room temrperature with 0.16 pmol of Cy3 labeled oligonucleotide. The mixture was loaded on a 4% polyacrylamide gel prepared in 1× tris borate/EDTA buffer and was electrophoresed at 200 V for 20 minutes. After electrophoresis the gel was analyzed using a phosphorimager (Biorad FX plus) for detection of the NF-kB—DNA binding.

NF-κB [2] = biological target: T1, NF-κB; assay: IC50 values in Mammalian Jurkat cells Leukemia T cells; format: cell-based; set-up: endogenous in cells; host or cells: Jurkat leukemia T-cells, clone E6-1 (ATCC), PMA-stimulated; nuclear extract; conditions: concentration at which 50% of the protein/enzyme is inhibited in cells
Method: as §1
IC50 values in Mammalian Jurkat cells Leukemia T cells: IC50 value is defined as the concentration of compounds at which 50% of the protein/enzyme is inhibited in cells (Table 3).

Micrococcus luteus = assay: standardized disk diffusion method (zone diameter / MIC); format: cell-based; conditions: at the amount printed in the same cell
Method: Compounds 4, 6, and 7 were tested for the inhibition of bacteria. A total of 9 bacterial strains were screened. The following Gram-negative and Gram-positive bacteria were included: Staphylococcus aureus, Enterobacter aerogenes, Esherichia coli, Klebsiella pneumonia, Pseudomonas aeruginosa, Serratia marcescens, Bacillus cerius, Bacillus subtillus and micrococcus luteus. Bacterial isolates were removed from storage, streaked on to nutrient agar plates and incubated for 18-24 hours at 35° C. A working bacterial suspension was prepared by suspending 3-5 isolated colonies in 5 mL saline solution. The turbidity of this suspension was carefully adjusted photometrically to equal that of a 0.5 McFarland standard. The zone diameters were determined by a standardized disk diffusion method using cation-supplemented Mueller-Hinton agar according to NCCLS guidelines (National Committee for Clinical Laboratory Standards. Methods for dilution Antimicrobial Susceptibility Tests for Bacteria that Grow Aerobically. Fifth Edition: Approved Standard M7-A5. Wayne, Pa.: NCCLS (2000)). Minimum inhibitory concentrations (MICs) were considered the lowest concentration that gave a clear zone of inhibition. The inoculated agar plates were incubated for 16-20 hours at 35° C. in ambient air. The diameters of the zones were read in millimeters.

RIF-1 murine tumor = assay: RIF-1 murine model of tumor growth delay; format: in vivo, mice
Method: Tumor cells were injected, bilaterally, into the backs of mice. When tumors reached 100 mm^3, the mice were treated with an intraperitoneal injection of the compound. Tumor volumes were measured 3 times a week until they reached 4 times the size they were on the first treatment day. Data is recorded as “Days to 4×’ or ratio of ‘Days to 4×” of the treated over untreated controls.

CEM cells = tested on: CEM cells
Method: Imidazolines 28-33 were evaluated for their ability to enhance the activity of camptothecin in CEM cells. Induction of apoptosis is the hallmark of most chemotherapeutic agents including camptothecin. The systematic disassembly of apoptotic cells is accomplished by active caspases (Thornberry et al., Nature 356: 768-774 (1992); Nicholson et al., Trends Biochem. Sci. 22: 299-306 (1997)). A standard apoptosis assay is Promega's APO-ONE homogeneous caspase-3/7 assay, which takes advantage of this caspase activity to directly quantify the induction of apoptosis in cells (Thornberry et al., Nature 356: 768-774 (1992); Nicholson et al., Trends Biochem. Sci. 22: 299-306 (1997)). According to the hypothesis that NF-κB inhibition should enhance the activity of chemotherapeutic agents via the inhibition of anti-apoptotic signaling pathway—thus enhancement of apoptosis—(Boland, Biochem Soc Trans 29: 674-678 (2001); Chiao et al., Cancer 95: 1696-1705 (2002)), we investigated the effects of the imidazolines using this caspase-3/7 assay. This assay quantifies the level of apoptotic cell death induced by camptothecin with and without the imidazolines and will establish the direct level of enhancement of apoptosis by camptothecin.
Induction of apoptosis using caspase 3/7 assay was as follows. CEM cells (CCRF-CEM); Amer. Type Culture Collection, Rockville, Md.) were grown in RPMI-1640 Media (Gibco-BRL, Rockville, Md.) supplemented with 10% fetal bovine serum, penicillin (614 ηg/mL), streptomycin (10 μg/mL) and hepes buffer, pH 7.2 at 37° C., 5% CO2. DMSO was used as the vector for all drugs and added in the control experiments. Cell cultures were treated with 1 μM, 0.1 μM or 10 nM of the imidazolines and allowed to incubate at 37° C., 5% CO2. An aliquote was transferred to a 96-well plate and mixed with an equal volume of Apo-ONE™ Homogenous Caspase-3/7 assay (Promega Corporation) reagent. The contents of the plate were gently mixed and allowed to incubate for 1 hour. The fluorescence of each well was then measured on a Molecular Imager FX Pro at 532 nm. All reported data was the average of two independent experiments unless otherwise indicated.

[3] = IP, doses 5.0 and 50 mg/kg
Method: Prior to the combinatorial studies, the toxicity of the compounds was determined in the mouse model. […] In short, the drugs are dissolved in DMSO and 100 μL given to the mice on day 0 by intraperitoneal injection (IP). […] Weight and death were the two measures of toxicity.

NF-κB [4] = biological target: T1, NF-κB; assay: EMSA of camptothecin activated NF-κB in CEM leukemia T-cells; format: cell-based; set-up: endogenous in cells; nuclear extract; conditions: for inhibition of camptothecin induced NF-κB nuclear binding: CPT 0.1 μM, 32 at 10 μM to 10 nM, PDTC 5 μM
Method: CEM cells were incubated with and without varying concentrations of camptothecin (CPT). Positive controls included PMA/PHA activation (FIG. 11, lane 2). Lane 3 included a positive control using PMA/PHA activation followed by the treatment of the extract with a NF-κB p65 antibody to unambiguously identify the NF-κB/DNA complex.
CEM cells were treated with various concentration of imidazoline 32, 30 minutes prior to activation by camptothecin (0.1 μM). […] Control lanes include: DNA only (lane 1), PMA/PHA activated NF-κB (lane 2), PMA/PHA activated NF-κB treated with a p65 antibody, which provide a supershift (lane 3) and the unactivated control (lane 4).
EMSA assay for NF-κB-DNA binding was as follows. […] The cells were harvested by centrifugation, washed in ice cold PBS and the nuclear extracts were prepared as previously described (Dignam, et al., Nucl. Acids Res 11: 1475-1489 (1983)). The protein concentration of the extracts was determined according to the Method of Bradford (1976) with BioRad reagents. Nuclear extracts are incubated for 20 minutes at room temperature with a double stranded Cy3 labeled NF-kB consensus oligonucleotide, 5′-[sequence] […] The binding mixture (25 mL) contained 10 mM HEPES-NaOH pH 7.9, 4 mM tris-HCl, pH 7.9, 6.0 mM KCl, 1 mM EDTA, 1 mM DTT, 10% glycerol, 0.3 mg/mL bovide serum albumin and 1 mg of poly (dI.dC). The binding mixtures (10 mg of nuclear extract protein) were incubated for 20 minutes at room temrperature with 0.16 pmol of Cy3 labeled oligonucleotide. The mixture was loaded on a 4% polyacrylamide gel prepared in 1× tris borate/EDTA buffer and was electrophoresed at 200 V for 20 minutes. After electrophoresis the gel was analyzed using a phosphorimager (Biorad FX plus) for detection of the NF-kB—DNA binding.

[5] = tested on: NF-κB p50/p65 heterodimer; assay: p65-ELISA assay of NF-κB nuclear translocation in Jurkat cells; format: cell-based, Human; conditions: concentrations 100 ηM-5.0 μM, 30 minutes prior to PMA activation
Method: Inhibition of the nuclear translocation of the p50/p65 heterodimer of NF-κB was confirmed by a p65-ELISA assay. Cells were treated with the PDTC (positive control-reported to inhibit IκB phosphorylation thus inhibiting NF-κB translocation), and imidazoline 32, 30 minutes prior to PMA activation, followed by the isolation of the nuclear extract after a 30 minute incubation period.
The quantity of p65/p50 heterodimer that has translocated into the nucleus was measured using a NF-κB p65 sandwich ELISA assay (Imgenex Corp.). Jurkat cells were grown to 2×10^6 cells/mL and treated with 50 ng/mL PMA and 1 μg/mL PMA/PHA and incubated at 37° C., 5% CO2. The cells are harvested after 30 minutes and nuclear extracts are prepared as previously described by Dignam and coworkers (Dignam, et al., Nucl. Acids Res 11: 1475-1489 (1983)). The NF-κB p65 sandwich ELISA kit was then used to monitor and quantify p65 translocation into the nucleus according to the manufacturers protocol.

| SMILES | inhibition at 0.1 µM (NF-κB [1]) [%] | IC50 (NF-κB [2]) [nM] | zone of inhibition diameter (Micrococcus luteus) [mm] | tolerability in mice [3] | inhibition of camptothecin induced NF-κB nuclear binding (NF-κB [4]) | inhibition of NF-κB p50/p65 heterodimer nuclear translocation [5] | further results |
| --- | --- | --- | --- | --- | --- | --- | --- |
| C[C@]1(C(=O)O)N=C(c2ccccc2)N(Cc2ccccc2)[C@H]1c1ccncc1 (racemic) [Compound 6, Dl-(3S,4S)-1-Benzyl-4-methyl-2-phenyl-5-pyridin-4yl-4,5-dihydro-1H-imidazole-4-carboxylic acid] | 84 | 300 | 10 |  |  |  | Days Delay (tumor growth delay) (RIF-1 murine tumor; IP, imidazoline 100 mg/kg, cis-platin 4 mg/kg, camptothecin 6 mg/kg): -0.41 days; Median (days to 4x) (RIF-1 murine tumor; IP, imidazoline 100 mg/kg, cis-platin 4 mg/kg, camptothecin 6 mg/kg, untreated 7.0): 6.6 days; Days to 4x (Ave ±SE) (RIF-1 murine tumor; IP, imidazoline 100 mg/kg, cis-platin 4 mg/kg, camptothecin 6 mg/kg, untreated 7.3 ± 0.6): 6.6 ± 0.3 days; chemopotentiation of camptothecin (RIF-1 murine tumor; combinational treatment with camptothecin (CPT), RIF-1 tumors in mice): significant chemopotentiation; chemopotentiation of cis-platin (RIF-1 murine tumor; combinational treatment with cis-platin (CDDP), RIF-1 tumors in mice): significant chemopotentiation |
| C[C@]1(C(=O)O)N=C(c2ccccc2)N[C@H]1c1ccccc1 (racemic) [Compound 7, Dl (3S,4S)-4-Methyl-2,5-diphenyl-4,5-dihydro-1H-imidazole-4-carboxylic acid] | 38 | 20 | 10 |  |  |  |  |
| C[C@]1(C(=O)O)N=C(c2ccccc2)N(c2ccc(F)cc2)[C@H]1c1ccccc1 (racemic) [Compound 28, dl-(4S,5S)-1-(4-Fluorophenyl)-4-methyl-2,5-diphenyl-4,5-dihydro-1H-imidazole-4-carboxylic acid] |  |  |  | well tolerated |  |  | Apoptosis (±S.D.) (CEM cells; Compound 1.0 μm alone, T-cells, 48 hour period, cells only = 1.00 (normalized)): 1.25 ± 0.18 |
| O=C(O)[C@@]1(c2ccccc2)N=C(c2ccccc2)N(Cc2ccccc2)[C@H]1c1ccccc1 (racemic) [Compound 32, dl-(4S,5S)-1-Benzyl-2,4,5-triphenyl-4,5-dihydro-1H-imidazole-4-carboxylic acid] |  |  |  | well tolerated | inhibited camptothecin induced NF-κB nuclear binding in a dose responds manner | inhibition of nuclear translocation of NF-κB; also recorded: significantly inhibits | NF-κB-DNA complex formation (NF-κB [4]; 0.1 μM CPT + 10 μM compound 32 (lane 7 versus lane 5)): significant decrease; Apoptosis (±S.D.) (CEM cells): 1.98 ± 0.0001; chemopotentiation of cis-platin (apoptosis) (CEM cells; CEM cells, 0.1 micromolar cis-platin + 0.1 micromolar 32 versus 1.0 micromolar cis-platin): chemopotentiation of cis-platin; also recorded: chemopotentiate cis-platin; induction of apoptosis in combination with camptothecin (CEM cells; CEM cells, CPT 0.1 μM with varying concentrations of imidazoline, 48 hours): dose dependent enhancement of apoptosis |
| C[C@]1(C(=O)O)N=C(c2ccccc2)N(Cc2ccccc2)[C@H]1c1ccccc1 (racemic) [Compound 33, dl-(4S,5S)-1-Benzyl-4-methyl-2,5-diphenyl-4,5-dihydro-1H-imidazole-4-carboxylic acid] |  |  |  | well tolerated |  |  |  |
| N.S=C(S)N1CCCC1 [PDTC, reference compound] |  |  |  |  | decrease of binding | significant inhibition; also recorded: inhibited NF-κB translocation |  |
